# Where a name gives a salt, the structure may show the parent alone.
# Target: ALK1 kinase (Homo sapiens (Human), UniProt P37023)
# Test: In vitro enzyme inhibition using scintillation of incorporated radio label (flashplate assay)
# Assay type: biochemical
# Settings: biotinylated α-casein, 33P-ATP, 500 nM ATP
# Procedure: B-1a. In Vitro Enzyme Inhibition Using Scintillation of Incorporated Radio Label (Flashplate Assay)
# Test compounds diluted in DMSO are mixed with a suitable substrate/co-substrate (here: biotinylated α-casein and ^33P-ATP) in a corresponding assay buffer. Addition of the enzyme of interest (here: ALK1 kinase) starts the enzyme reaction. The enzyme-catalyzed incorporation of radio label into the substrate is measured via scintillation. Incorporated radio label is separated from free radio label via specific binding of the biotinylated substrate to strepavidin-coated microtiter plates (flashplates) and concomitant washing steps. The scintillation signal intensity (counts per minutes, cpm) is proportional to the enzyme activity. Enzyme inhibition results in a decreased signal intensity. IC50 values of the test compounds are determined by cpm-versus-[I] plots.
# Reaction buffer contains 50 mM Tris pH 8.0 (Sigma), 1 mM MnCl2 (Sigma), 0.01% Nonidet P40 (Fluka), 0.5× Complete EDTA-free protease inhibitors (Roche; contains a mixture of several protease inhibitors for the inhibition of serine and cysteine (but not metallo-) proteases; 1 tablet contains protease inhibitors sufficient for a 50 ml cell extract; the concentration used in this assay corresponds to 1 tablet in 100 ml).
# • 1.) Stop solution: Dulbecco's PBS (PAA, Pasching, Austria), 25 mM EDTA (Sigma), 25 μM ATP (Roche), 0.05% Triton X-100 (Sigma); • 2.) Saturation buffer: Dulbecco's PBS (PAA, Pasching, Austria), 100 μM ATP (Roche), 0.2% Triton X-100 (Sigma); • 3.) Wash buffer: Dulbecco's PBS (PAA, Pasching, Austria). Enzyme Solution:
# ALK1 (Invitrogen, Paisley, United Kingdom) stock solution (35.7 ng/μl) is diluted to 4 ng/μl; final concentration in the reaction is 1 ng/μl.
# Dephosphorylated α-casein (Sigma) is biotinylated according to the manufacturer's protocol (Pierce, Bonn, Germany) resulting in a stock solution of 61.6 μM. Briefly, EZ-Link® Biotin reagent (sulfosuccinimidyl-6-(biotinamido)hexanoate; Pierce, Bonn, Germany) is added in equal molarity to α-casein and incubated on ice for 2 h. Afterwards, the biotin reagent is removed by dialysis (2×2 h and overnight).
# A 100 mM solution of cold (unlabelled) ATP (Roche) is diluted 1:100 before each test. For the substrate mix, α-casein is diluted to 2.22 μM resulting in a final concentration of 1 μM α-casein in the reaction. Additionally, cold ATP is added to give a 1.11 μM solution which results in a final concentration of 500 nM in the reaction.
# Radioactive ATP Solution:
# The stock solution (9.25 MBq/25 μl of ^33P-ATP; Perkin Elmer, Rodgau, Germany) is diluted to 651.2 Bq/μl.
# Compounds are dissolved in 100% DMSO (10 mM stock solution) and diluted to 2 mM. Further dilutions are made stepwise 1:3.16 in DMSO.
# A volume of 9 μl substrate solution is provided into each well of a 384 well microliter plate (Greiner Bio-One, Solingen, Germany), 1 μl compound solution and 5 μl of the radioactive ATP solution are added. Enzyme reaction starts with addition of 5 μl of enzyme solution. The mixture is incubated for 60 minutes at room temperature and then stopped by addition of 10 μl stop solution. The 384 well microliter flashplates (Perkin Elmer, Rodgau, Germany) are saturated with 50 μl saturation buffer per well for at least 60 minutes. Subsequently, a volume of 20 μl is discarded and replaced with 20 μl of the stopped ALK1 reaction mixture. Binding of biotinylated substrate to the flashplate is allowed for by overnight incubation at room temperature. Bound substrate is separated from unbound components through repeated washing steps (3×50 μl washing buffer per well). Finally, 50 μl washing buffer is added, and the scintillation signal (cpm) is measured in a suitable counter (Perkin Elmer, Rodgau, Germany).
# Chain of ALK1 kinase (P37023 22-503): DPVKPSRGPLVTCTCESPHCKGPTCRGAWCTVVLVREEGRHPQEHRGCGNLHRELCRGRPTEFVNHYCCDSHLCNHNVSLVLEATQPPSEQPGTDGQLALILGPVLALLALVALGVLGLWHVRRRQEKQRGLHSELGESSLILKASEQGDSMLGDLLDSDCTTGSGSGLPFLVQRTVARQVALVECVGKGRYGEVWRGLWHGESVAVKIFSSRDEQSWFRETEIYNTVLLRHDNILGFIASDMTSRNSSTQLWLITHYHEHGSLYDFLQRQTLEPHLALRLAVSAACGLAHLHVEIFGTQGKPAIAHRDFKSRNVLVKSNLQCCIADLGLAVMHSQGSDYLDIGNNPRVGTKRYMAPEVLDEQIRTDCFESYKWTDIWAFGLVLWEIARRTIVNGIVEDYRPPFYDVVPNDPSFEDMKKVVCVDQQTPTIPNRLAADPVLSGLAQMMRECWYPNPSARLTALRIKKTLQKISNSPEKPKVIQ
row,Compound,IC50
1,"Nc1ncnn2c(C(O)C3CCOCC3)cc(-c3cc(F)c(CO)c(F)c3)c12 (stereo not shown) [Example 6, {4-Amino-5-[3,5-difluoro-4-(hydroxymethyl)phenyl]pyrrolo[2,1-f][1,2,4]triazin-7-yl}(tetrahydro-2H-pyran-4-yl)methanol]",40 nM
2,"Nc1ncnn2c(C3CCNCC3)cc(-c3ccc(CO)cc3)c12 [Example 10, {4-[4-Amino-7-(piperidin-4-yl)pyrrolo[2,1-f][1,2,4]triazin-5-yl]phenyl}methanol]",8 nM
3,"Nc1ncnn2c([C@H]3CCCNC3)cc(-c3cc(F)c(CO)c(F)c3)c12 [Example 12, (4-{4-Amino-7-[(3S)-piperidin-3-yl]pyrrolo[2,1-f][1,2,4]triazin-5-yl}-2,6-difluorophenyl)methanol]",5.9 nM
4,"CCc1nc(-c2cc(-c3ccc(CO)cc3)c3c(N)ncnn23)cs1 [Example 15, {4-[4-Amino-7-(2-ethyl-1,3-thiazol-4-yl)pyrrolo[2,1-f][1,2,4]triazin-5-yl]phenyl}methanol]",60 nM
5,"Nc1ncnn2c(CN3CCNCC3)cc(-c3ccc(CO)cc3)c12 [Example 18, {4-[4-Amino-7-(piperazin-1-ylmethyl)pyrrolo[2,1-f][1,2,4]triazin-5-yl]phenyl}methanol]",80 nM
6,"Nc1ncnn2c(CN3CCOCC3)cc(-c3ccc(CO)cc3)c12 [Example 19, {4-[4-Amino-7-(morpholin-4-ylmethyl)pyrrolo[2,1-f][1,2,4]triazin-5-yl]phenyl}methanol]",19 nM
7,"Cc1cc(-c2cc(CN3CCOCC3)n3ncnc(N)c23)ccc1CO [Example 23, {4-[4-Amino-7-(morpholin-4-ylmethyl)pyrrolo[2,1-f][1,2,4]triazin-5-yl]-2-methylphenyl}methanol]",30 nM
8,"Nc1ncnn2c(CN3CCOCC3)cc(-c3ccc(CO)nc3)c12 [Example 24, {5-[4-Amino-7-(morpholin-4-ylmethyl)pyrrolo[2,1-f][1,2,4]triazin-5-yl]pyridin-2-yl}methanol]",140 nM
9,"Nc1ncnn2c(CN3CCC(O)CC3)cc(-c3cc(F)c(CO)c(F)c3)c12 [Example 25, 1-({4-Amino-5-[3,5-difluoro-4-(hydroxymethyl)phenyl]pyrrolo[2,1-f][1,2,4]triazin-7-yl}methyl)piperidin-4-ol]",65 nM
10,"Nc1ncnn2c(CN3CCC(O)C3)cc(-c3cc(F)c(CO)c(F)c3)c12 (stereo not shown) [Example 26, 1-({4-Amino-5-[3,5-difluoro-4-(hydroxymethyl)phenyl]pyrrolo[2,1-f][1,2,4]triazin-7-yl}methyl)pyrrolidin-3-ol]",30 nM
11,"Nc1ncnn2c(CN3CCCC(O)C3)cc(-c3cc(F)c(CO)c(F)c3)c12 (stereo not shown) [Example 27, 1-({4-Amino-5-[3,5-difluoro-4-(hydroxymethyl)phenyl}pyrrolo[2,1-f][1,2,4]triazin-7-yl]methyl)piperidin-3-ol]",70 nM
12,"Nc1ncnn2c(C3(O)CCCCC3)cc(-c3cc(F)c(CO)c(F)c3)c12 [Example 33, 1-{4-Amino-5-[3,5-difluoro-4-(hydroxymethyl)phenyl]pyrrolo[2,1-f][1,2,4]triazin-7-yl}cyclohexanol trifluoroacetate]",15 nM

# The next molecules have a lower IC50 than those just listed; values first:
row,IC50,Compound
1,5.7 nM,"Nc1ncnn2c(C3(O)CCCNC3)cc(-c3cc(F)c(CO)c(F)c3)c12 (racemic) [Example 9, rac-3-{4-Amino-5-[3,5-difluoro-4-(hydroxymethyl)phenyl]pyrrolo[2,1-f][1,2,4]triazin-7-yl}-piperidin-3-ol]"
2,5.3 nM,"Cc1nc(-c2cc(-c3cc(F)c(CO)c(F)c3)c3c(N)ncnn23)cs1 [Example 14, {4-[4-Amino-7-(2-methyl-1,3-thiazol-4-yl)pyrrolo[2,1-f][1,2,4]triazin-5-yl]-2,6-difluorophenyl}-methanol]"
3,4.1 nM,"NCc1nc(-c2cc(-c3cc(F)c(CO)c(F)c3)c3c(N)ncnn23)cs1 [Example 34, (4-[4-Amino-7-[2-(aminomethyl)-1,3-thiazol-4-yl]pyrrolo[2,1-f][1,2,4]triazin-5-yl]-2,6-difluorophenyl)methanol]"
4,4 nM,"Cc1nc(-c2cc(-c3ccc(CO)cc3)c3c(N)ncnn23)cs1 [Example 13, {4-[4-Amino-7-(2-methyl-1,3-thiazol-4-yl)pyrrolo[2,1-f][1,2,4]triazin-5-yl]phenyl}methanol]"
5,4 nM,"Cc1cc(-c2cc(C3CCCNC3)n3ncnc(N)c23)cc(F)c1CO (stereo not shown) [Example 31, {4-[4-Amino-7-(piperidin-3-yl)pyrrolo[2,1-f][1,2,4]triazin-5-yl]-2-fluoro-6-methylphenyl}-methanol]"
6,4 nM,"Cc1cc(-c2cc(C3CCNC3)n3ncnc(N)c23)cc(F)c1CO (stereo not shown) [Example 32, {4-[4-Amino-7-(pyrrolidin-3-yl)pyrrolo[2,1-f][1,2,4]triazin-5-yl]-2-fluoro-6-methylphenyl}-methanol]"
7,3.8 nM,"CC(O)c1cc(-c2cc(F)c(CO)c(F)c2)c2c(N)ncnn12 (racemic) [Example 44, rac-1-{4-Amino-5-[3,5-difluoro-4-(hydroxymethyl)phenyl]pyrrolo[2,1-f][1,2,4]triazin-7-yl}-ethanol]"
8,2.6 nM,"CCc1nc(-c2cc(-c3cc(F)c(CO)c(F)c3)c3c(N)ncnn23)cs1 [Example 16, {4-[4-Amino-7-(2-ethyl-1,3-thiazol-4-yl)pyrrolo[2,1-f][1,2,4]triazin-5-yl]-2,6-difluorophenyl}-methanol]"
9,1 nM,"Nc1ncnn2c(CCCCO)cc(-c3ccc(CO)cc3)c12 [Example 4, 4-{4-Amino-5-[4-(hydroxymethyl)phenyl]pyrrolo[2,1-f][1,2,4]triazin-7-yl}butan-1-ol]"
10,1 nM,"COc1cc(-c2cc([C@H]3CC[C@H](O)CC3)n3ncnc(N)c23)cc(F)c1CO [Example 29, trans-4-{4-Amino-5-[3-fluoro-4-(hydroxymethyl)-5-methoxyphenyl]pyrrolo[2,1-f][1,2,4]triazin-7-yl}cyclohexanol]"

# Source: US9040691B2, “Hydroxymethylaryl-substituted pyrrolotriazines as ALK1 inhibitors” (BAYER INTELLECTUAL PROPERTY GMBH, priority 2011, dated 2015)
